Assay results from patent US20220072061A1, “SUBSTANCE FOR TREATMENT OR PREVENTION OF DISEASES, METHOD FOR DESIGNING THE SAME, AND METHOD FOR PREPARING THE SAME” (priority 2018, published 2022).
Counter-ions that a name gives are not always drawn.

Experiments:
[1] = tested on: patients with ankylosing spondylitis; experiment: Clinical study in patients with ankylosing spondylitis; format: in vivo, human; settings: number of patients (14 treatment, 13 control); after 1 month
Source text: 1. […] 2. […] 3. […] 4. Efficacy evaluation criteria:

hypertensive patients = experiment: Clinical study against hypertension; settings: human, in vivo
Protocol: 1. Clinical data: In this example, totally 46 hypertensive patients were treated and observed clinically, including 25 males and 21 females, 18-75 years old, with a course of disease of 0.5 to 30 years, who were randomly divided into a treatment group of 23 patients and a control group of 23 patients. There was no significant difference between the two groups in clinical data.
2. Diagnosis criteria: According to the Guidelines for Diagnosis of Hypertension in China (2010), hypertension can be diagnosed if the systolic pressure≥140 mmHg and/or the diastolic pressure≥90 mmHg. Grade 1 hypertension: systolic pressure 140 to 159 mmHg and/or diastolic pressure 90 to 99 mmHg; Grade 2 hypertension: systolic pressure 160 to 179 mmHg and/or diastolic pressure 100 to 109 mmHg; Grade 3 hypertension: systolic pressure≥180 mmHg and/or diastolic pressure≥110 mmHg.
3. […] Patients in the control group orally took Levamlodipine Beslate and losartan potassium tablets, 3 times a day under supervision of a physician, and the dose was maintained for 3 months or more.
(§1) 4. […] Total effective rate=cured rate+markedly effective rate+effective rate.

patients with urticaria = experiment: Clinical study against urticaria; format: in vivo, human
Protocol: 1. […]. There was no significant difference between the two groups in clinical data.
3. […] The patients in the control group orally took loratadine 5 mg per time, once day, for 30 days.
as §1

[2] = tested on: patients with allergic rhinitis; experiment: Clinical application trial for treatment of allergic rhinitis; format: in vivo, human
Protocol: There was no significant difference between the two groups in clinical data and conditions. […] Diagnosis criteria: 2 or more clinical symptoms such as sneezing, clear water-like nasal discharge, nasal congestion, and nasal itching, appearing continuously or continually for 1 hour or more every day. It may be accompanied by eye symptoms such as eye itching and conjunctival hyperemia. Common signs often include pale nasal mucosa, edema, and watery nasal discharge. Positive in the allergen skin prick test. 3. […] 4. […] Total effective rate=cured rate+effective rate.

patients with menoxenia = experiment: Clinical study against menoxenia; format: in vivo, human
Source text: 1. Clinical data: 60 cases (in total) of outpatients and inpatients with menoxenia were enrolled, and randomly divided into a treatment group of 30 patients and a control group of 30 patients. There was no significant difference between the two groups in clinical data.
2. Diagnosis criteria: Symptoms include disorders in the menstrual cycle and menstrual period, excessive or insufficient bleeding during menstruation, and abdominal pain before and after menstruation.
3. […] Patients in the control group were orally given clomifene citrate capsules (NMPA Approval No. H31021107), 50 mg/day, started on day 5 since menstruation, for 2 consecutive months.
4. Efficacy evaluation criteria: The efficacy evaluation is based on the relevant standards in Guiding Principles for Clinical Research of New Chinese Medicines.
(§2) Total effective rate=cured rate+effective rate.

patients with depression = experiment: Clinical study against depression; format: in vivo, human
Protocol: 1. Clinical data: 60 cases (in total) of outpatients and inpatients with depression were enrolled, and randomly divided into a treatment group of 30 patients and a control group of 30 patients. There was no significant difference between the two groups in clinical data.
2. Diagnosis criteria: The diagnosis criteria for depression from The Diagnostic and Statistical Manual of Mental Disorders.
3. […] Patients in the control group were treated with fluoxetine, the initial and treatment doses both being 20 mg/day, for a course of 4 weeks.
4. Efficacy evaluation criteria: After 4 weeks of treatment, the patients were scored by a psychiatrist based on the Hamilton Depression Rating Scale HAMD-17. “Cured” means a HAMD-17 total score <7; “effective” means a HAMD-17 total score of 8-17; and “ineffective” means a HAMD-17 total score>17.
as §2

[3] = number of patients of 28, chronic urticaria
[4] = number of patients of 30, allergic rhinitis

`O=C(O)c1cc(/N=N/c2ccc(S(=O)(=O)Nc3ccccn3)cc2)ccc1O` [sulfasalazine enteric tablets, sulfasalazine] was tested, and the Effective [1] was 5, the Ineffective [1] was 6 and the Markedly effective [1] was 2.
With “Levamlodipine Beslate and losartan potassium” the adverse drug reactions (hypertensive patients) was 6 cases and the drug dependence (hypertensive patients) was 4 cases.
`CCOC(=O)N1CCC(=C2c3ccc(Cl)cc3CCc3cccnc32)CC1` [loratadine] was tested, and the “Total effective rate (%)” value (patients with urticaria; cured rate+markedly effective rate+effective rate, chronic urticaria) was 53.57%, the Cured (patients with urticaria; [3]) was 0 and the Ineffective (patients with urticaria; [3]) was 13. The Effective (patients with urticaria; number of patients of 28, wheal subsided by 50% to 80%) was 6, the Markedly effective (patients with urticaria; number of patients of 28, wheal subsided by 80% or more) was 9 and the recurrence ([2]; 6-month follow-up / after drug discontinuance) was “allergic symptoms appeared after contact with allergens after drug discontinuance”. For the same molecule, the “drug adverse reaction or drug dependence” value ([2]; during the treatment, of 30 patients) was 5 cases, the Effective [2, 4] was 20 and the Ineffective [2, 4] was 10. The Cured ([2]; number of patients of 30, allergic rhinitis, no recurrence for 60 days) was 0.
`CCN(CC)CCOc1ccc(C(=C(Cl)c2ccccc2)c2ccccc2)cc1` [clomifene citrate capsules, clomifene citrate] was tested, and the “Total effective rate (%)” value (patients with menoxenia; after treatment) was 66.67%, the Cured (patients with menoxenia; number of patients of 30) was 0 and the Effective (patients with menoxenia; number of patients of 30) was 10. It also gave a Markedly effective (patients with menoxenia; number of patients of 30) of 10.
In the case of `CNCCC(Oc1ccc(C(F)(F)F)cc1)c1ccccc1` (centres unmarked) [fluoxetine], the “Total effective rate (%)” value (patients with depression; cured rate+effective rate, depression, after 4 weeks) is reported as 76.67%, the Cured (patients with depression; number of patients of 30, HAMD-17 total score <7 after 4 weeks) is reported as 9 and the Ineffective (patients with depression; number of patients of 30, HAMD-17 total score >17 after 4 weeks) is reported as 7. The Effective (patients with depression; number of patients of 30, HAMD-17 total score of 8-17 after 4 weeks) was 14.
